We go through seven compounds from ChEMBL document CHEMBL1133695, “A three-dimensional model of lanosterol 14alpha-demethylase of Candida albicans and its interaction with azole antifungals” (J Med Chem, 2000).

This test has as its system Candida albicans. As to the kind of experiment: Concentration required to reduce the growth of Candida albicans to 50% of that in the control. In kind it is functional, organism-based.

Molecules are shown by their SMILES.

`COc1cc(C(F)(F)F)ccc1C(O)(Cn1cncn1)Cn1cncn1` displayed an IC50 of 28.5 µM. The compound `OC(Cn1cncn1)(Cn1cncn1)c1ccc(-c2ccc(Cl)cc2)cc1` returned an IC50 of 7.19 µM. As for `OC(Cn1cncn1)(Cn1cncn1)c1ccc(C(F)(F)F)cc1`, the figure is 3.25 µM; as for `Cc1cc(F)ccc1C(O)(Cn1cncn1)Cn1cncn1`, 101 µM; as for `OC(Cn1cncn1)(Cn1cncn1)c1ccccc1C(F)(F)F`, 103 µM.

With `OC(Cn1cncn1)(Cn1cncn1)c1ccc(F)cc1F` [FLUCONAZOLE], the IC50 came to 1.97 µM. With `OC(Cn1cncn1)(Cn1cncn1)c1ccc(Oc2ccc(Cl)cc2)cc1`, the midpoint of inhibition, the IC50, lay at 6.94 µM.

The IC50 is the concentration that inhibits the measured activity by half. A high value points to weaker potency in that assay.
